# Measured values: ChEMBL document CHEMBL1147201, “Structural requirements of HDAC inhibitors: SAHA analogs functionalized adjacent to the hydroxamic acid” (Bioorg Med Chem Lett, 2007)
# Target: Histone deacetylase
# Experiment: Inhibition of HDAC by fluorescent assay
# Format: protein assay, Homo sapiens
row,IC50,SMILES
1,154 µM,CCCC(CCCCCC(=O)Nc1ccccc1)C(=O)NO (configuration not stated)
2,72 µM,CCCCC(CCCCCC(=O)Nc1ccccc1)C(=O)NO (configuration not stated)
3,87 µM,C#CCC(CCCCCC(=O)Nc1ccccc1)C(=O)NO (configuration not stated)
4,449 µM,CCC(CCCCCC(=O)Nc1ccccc1)C(=O)NO (configuration not stated)
5,134 µM,CC(CCCCCC(=O)Nc1ccccc1)C(=O)NO (configuration not stated)
6,226 µM,O=C(CCCCCC(Cc1ccccc1)C(=O)NO)Nc1ccccc1 (configuration not stated)
7,144 µM,C=CCC(CCCCCC(=O)Nc1ccccc1)C(=O)NO (configuration not stated)
